Laboratory results reported in patent US20130274100A1, “Synergistic Fungicidal Active Substance Combinations” (priority 2005, published 2013).

Columns and labels:
Puccinia recondita = assay: Puccinia test (wheat)/protective; format: in vivo; conditions: protective spray, evaluation 10 days after inoculation
Source text: The expected fungicidal action for a given combination of two active compounds can be calculated as follows, according to S. R. Colby (“Calculating Synergistic and Antagonistic Responses of Herbicide Combinations”, Weeds 1967, 15, 20-22): • X is the efficacy when employing active compound A at an application rate of m g/ha, • Y is the efficacy when employing active compound B at an application rate of n g/ha and • E is the efficacy when employing active compounds A and B at application rates of m and n g/ha, then Here, the efficacy is determined in %. 0% means an efficacy which corresponds to that of the control, whereas an efficacy of 100% means that no infection is observed. If the actual fungicidal action exceeds the calculated value, the action of the combination is superadditive, i.e. a synergistic effect is present. In this case, the actually observed efficacy must exceed the value calculated using the above formula for the expected efficacy (E). Puccinia Test (Wheat)/Protective Solvent: 50 parts by weight of N,N-dimethylacetamide Emulsifier: 1 part by weight of alkylaryl polyglycol ether To produce a suitable preparation of active compound, 1 part by weight of active compound is mixed with the stated amounts of solvent and emulsifier or a commercial active compound formulation, and the concentrate is diluted with water to the desired concentration. To test for protective activity, young plants are sprayed with the preparation of active compound at the stated application rate. After the spray coating has dried on, the plants are sprayed with a conidia suspension of Puccinia recondita. The plants remain in an incubation cabin at 20° C. and 100% relative atmospheric humidity for 48 hours. The plants are then placed in a greenhouse at a temperature of about 20° C. and a relative atmospheric humidity of 80% to promote the development of rust postules. Evaluation is carried out 10 days after the inoculation. 0% means inefficacy which corresponds to that of the control, whereas an efficacy of 100% means that no infection is observed.

[1] = test system: Erysiphe graminis f.sp. tritici; assay: Erysiphe test (wheat)/protective; format: in vivo; conditions: protective spray, application rate 62.5 g/ha, evaluation 7 days after inoculation
Source text: The expected fungicidal action for a given combination of two active compounds can be calculated as follows, according to S. R. Colby (“Calculating Synergistic and Antagonistic Responses of Herbicide Combinations”, Weeds 1967, 15, 20-22): • X is the efficacy when employing active compound A at an application rate of m g/ha, • Y is the efficacy when employing active compound B at an application rate of n g/ha and • E is the efficacy when employing active compounds A and B at application rates of m and n g/ha, then Here, the efficacy is determined in %. 0% means an efficacy which corresponds to that of the control, whereas an efficacy of 100% means that no infection is observed. If the actual fungicidal action exceeds the calculated value, the action of the combination is superadditive, i.e. a synergistic effect is present. In this case, the actually observed efficacy must exceed the value calculated using the above formula for the expected efficacy (E). Erysiphe Test (Wheat)/Protective Solvent: 50 parts by weight of N,N-dimethylacetamide Emulsifier: 1 part by weight of alkylarylpolyglycol ether To produce a suitable preparation of active compound, 1 part by weight of active compound is mixed with the stated amounts of solvent and emulsifier or a commercial active compound formulation, and the concentrate is diluted with water to the desired concentration. To test for protective activity, young plants are sprayed with the preparation of active compound at the stated application rate. After the spray coating has dried on, the plants are dusted with spores of Erysiphe graminis f.sp. tritici. The plants are placed in a greenhouse at a temperature of about 20° C. and a relative atmospheric humidity of about 80% to promote the development of mildew pustules. Evaluation is carried out 7 days after the inoculation. 0% means an efficacy which corresponds to that of the control, whereas an efficacy of 100% means that no infection is observed.

SMILES	Efficacy in % found (Puccinia recondita; application rate 125 g/ha) [%]	Efficacy in % found [1] [%]	Efficacy in % found (Puccinia recondita; application rate 250 g/ha) [%]
CC(C1CC1)C(O)(Cn1cncn1)c1ccc(Cl)cc1 (stereo not shown) [(3-6), Cyproconazole]	94	57	–
CO/C=C(/C(=O)OC)c1ccccc1COc1cccc(C(F)(F)F)n1 [(2-9), Picoxystrobin]	–	71	94
CC(C)CC(C)c1sccc1NC(=O)c1cn(C)nc1C(F)(F)F (stereo not shown) [(1-1), N-[2-(1,3-dimethylbutyl)-3-thienyl]-1-methyl-3-(trifluoromethyl)-1H-pyrazole-4-carboxamide]	33	0	67
CCCCC(O)(Cn1cncn1)c1ccc(Cl)cc1Cl (stereo not shown) [(3-7), Hexaconazole]	78	29	–
CCCC1COC(Cn2cncn2)(c2ccc(Cl)cc2Cl)O1 (stereo not shown) [(3-3), Propiconazole]	56	29	–
Cc1cc(C2CC2)nc(Nc2ccccc2)n1 [(9-1), Cyprodinil]	0	0	–
